Measured values reported in ChEMBL document CHEMBL1134487, “Design, synthesis, and biological evaluation of analogues of the antitumor agent, 2-(4-[(7-chloro-2-quinoxalinyl)oxy]phenoxy)propionic acid (XK469)” (2001).

Key:
[1] = tested on: Mus musculus; experiment: In vivo activity tested against C3H mice bearing colon adenocarcinoma -38(colon-38) tumor measured as log Kill value was based on tumors that grew at 1433 mg/kg (po); type: functional, organism-based; design: dose 1433 mg/kg
[2] = tested on: Mus musculus; experiment: In vivo activity tested against C3H mice bearing colon adenocarcinoma -38(colon-38) tumor measured as % treated/control calculated at 1433 mg/kg (po); type: functional
[3] = tested on: Mus musculus; experiment: In vivo activity tested against C3H mice bearing colon adenocarcinoma -38(colon-38) tumor measured as activity rating at 1433 mg/kg (po); type: functional
[4] = tested on: Mus musculus; experiment: In vivo activity tested against C3H mice bearing colon adenocarcinoma -38(colon-38) tumor measured as body weight loss at 1433 mg/kg (po); type: functional
[5] = tested on: Mus musculus; experiment: In vivo activity tested against C3H mice bearing colon adenocarcinoma -38(colon-38) tumor measured as body weight loss at 769 mg/kg (po); type: functional
[6] = tested on: Mus musculus; experiment: In vivo activity tested against C3H mice bearing colon adenocarcinoma -38(colon-38) tumor measured as % treated/control calculated at 769 mg/kg (po); type: functional
[7] = tested on: Mus musculus; experiment: In vivo activity tested against C3H mice bearing colon adenocarcinoma -38(colon-38) tumor measured as log Kill value was based on tumors that grew at 769 mg/kg (po); type: functional, organism-based; design: dose 769 mg/kg
[8] = tested on: Mus musculus; experiment: In vivo activity tested against C3H mice bearing colon adenocarcinoma -38(colon-38) tumor measured as activity rating at 769 mg/kg (po); type: functional
[9] = tested on: Mus musculus; experiment: In vivo activity tested against C3H mice bearing colon adenocarcinoma -38(colon-38) tumor measured as % treated/control calculated at 495 mg/kg (po); type: functional
[10] = tested on: Mus musculus; experiment: In vivo activity tested against C3H mice bearing colon adenocarcinoma -38(colon-38) tumor measured as body weight loss at 495 mg/kg (po); type: functional
[11] = tested on: Mus musculus; experiment: In vivo activity tested against C3H mice bearing colon adenocarcinoma -38(colon-38) tumor measured as activity rating at 495 mg/kg (po); type: functional
[12] = tested on: Mus musculus; experiment: In vivo activity tested against C3H mice bearing colon adenocarcinoma -38(colon-38) tumor, measured as cures at 495 mg/kg (po); 3/5 cures; type: functional
[13] = tested on: Mus musculus; experiment: In vivo activity tested against C3H mice bearing colon adenocarcinoma -38(colon-38) tumor measured as log Kill value was based on tumors that grew at 495 mg/kg (po); type: functional, organism-based; design: dose 495 mg/kg
[14] = tested on: Mus musculus; experiment: In vivo activity tested against C3H mice bearing mammary adenocarcinoma -16c/ADR tumor measured as log Kill value was based on tumors that grew at 582 mg/kg (po); type: functional, organism-based; design: dose 582 mg/kg
[15] = tested on: Mus musculus; experiment: In vivo activity tested against C3H mice bearing mammary adenocarcinoma -17/ADR tumor measured as body weight loss at 679 mg/kg (po); type: functional
[16] = tested on: Mus musculus; experiment: In vivo activity tested against C3H mice bearing mammary adenocarcinoma -16c/ADR tumor measured as % treated/control calculated at 455 mg/kg (po); type: functional
[17] = tested on: Mus musculus; experiment: In vivo activity tested against C3H mice bearing mammary adenocarcinoma -16c/ADR tumor measured as body weight loss at 582 mg/kg (po); type: functional
[18] = tested on: Mus musculus; experiment: In vivo activity tested against C3H mice bearing mammary adenocarcinoma -17/ADR tumor measured as % treated/control calculated at 679 mg/kg (po); type: functional
[19] = tested on: Mus musculus; experiment: In vivo activity tested against C3H mice bearing colon adenocarcinoma -38(colon-38) tumor measured as log Kill value was based on tumors that grew at 195 mg/kg (po); type: functional, organism-based; design: dose 195 mg/kg
[20] = tested on: Mus musculus; experiment: In vivo activity tested against C3H mice bearing mammary adenocarcinoma -17/ADR tumor measured as % treated/control calculated at 407.4 mg/kg (po); type: functional
[21] = tested on: Mus musculus; experiment: In vivo activity tested against C3H mice bearing mammary adenocarcinoma -17/ADR tumor measured as log Kill value was based on tumors that grew at 679 mg/kg (po); type: functional, organism-based; design: dose 679 mg/kg
[22] = tested on: Mus musculus; experiment: In vivo activity tested against C3H mice bearing colon adenocarcinoma -38(colon-38) tumor measured as body weight loss at 585 mg/kg (po); type: functional
[23] = tested on: Mus musculus; experiment: In vivo activity tested against C3H mice bearing mammary adenocarcinoma -16c/ADR tumor measured as % treated/control calculated at 582 mg/kg (po); type: functional
[24] = tested on: Mus musculus; experiment: In vivo activity tested against C3H mice bearing mammary adenocarcinoma -17/ADR tumor measured as body weight loss at 407.4 mg/kg (po); type: functional
[25] = tested on: Mus musculus; experiment: In vivo activity tested against C3H mice bearing colon adenocarcinoma -38(colon-38) tumor measured as % treated/control calculated at 195 mg/kg (po); type: functional
[26] = tested on: Mus musculus; experiment: In vivo activity tested against C3H mice bearing colon adenocarcinoma -38(colon-38) tumor measured as body weight loss at 195 mg/kg (po); type: functional
[27] = tested on: Mus musculus; experiment: In vivo activity tested against C3H mice bearing mammary adenocarcinoma -16c/ADR tumor measured as log Kill value was based on tumors that grew at 455 mg/kg (po); type: functional, organism-based; design: dose 455 mg/kg
[28] = tested on: Mus musculus; experiment: In vivo activity tested against C3H mice bearing colon adenocarcinoma -38(colon-38) tumor measured as % treated/control calculated at 585 mg/kg (po); type: functional
[29] = tested on: Mus musculus; experiment: In vivo activity tested against C3H mice bearing colon adenocarcinoma -38(colon-38) tumor measured as log Kill value was based on tumors that grew at 585 mg/kg (po); type: functional, organism-based; design: dose 585 mg/kg
[30] = tested on: Mus musculus; experiment: In vivo activity tested against C3H mice bearing mammary adenocarcinoma -17/ADR tumor measured as log Kill value was based on tumors that grew at 407.4 mg/kg (po); type: functional, organism-based; design: dose 407.4 mg/kg
[31] = tested on: Mus musculus; experiment: In vivo activity tested against C3H mice bearing mammary adenocarcinoma -16c/ADR tumor measured as body weight loss at 455 mg/kg (po); type: functional
[32] = tested on: Mus musculus; experiment: In vivo activity tested against C3H mice bearing panc-03 murine tumor at a dose of 330mg/kg, measured as % treated/control; type: functional
[33] = tested on: Mus musculus; experiment: In vivo activity tested against C3H mice bearing panc-03 murine tumor at a dose of 330 mg/kg, measured as activity rating at 330 mg/kg iv dose; type: functional
[34] = tested on: Mus musculus; experiment: In vivo activity tested against C3H mice bearing panc-03 murine tumor measured as % treated/control calculated at 144 mg/kg (po); type: functional
[35] = tested on: Mus musculus; experiment: In vivo activity tested against C3H mice bearing panc-03 murine tumor measured as log Kill value was based on tumors that grew at 144 mg/kg (po); type: functional, organism-based; design: dose 144 mg/kg
[36] = tested on: Mus musculus; experiment: In vivo activity tested against C3H mice bearing mammary adenocarcinoma -17/ADR tumor measured as log Kill value was based on tumors that grew at 216 mg/kg (po); type: functional, organism-based; design: dose 216 mg/kg
[37] = tested on: Mus musculus; experiment: In vivo activity tested against C3H mice bearing mammary adenocarcinoma -17/ADR tumor measured as body weight loss at 216 mg/kg (po); type: functional
[38] = tested on: Mus musculus; experiment: In vivo activity tested against C3H mice bearing mammary adenocarcinoma -17/ADR tumor measured as % treated/control calculated at 216 mg/kg (po); type: functional
[39] = tested on: Mus musculus; experiment: In vivo activity tested against C3H mice bearing panc-03 murine tumor measured as body weight loss at 144 mg/kg (po); type: functional

For `COC(=O)C(C)Oc1ccc(Oc2cnc3ccc(F)cc3n2)cc1` (centres undefined), the Log kill [1] was 0.8, the T/C [2] was 34% and the Activity rating [3] was 1.2. It also gave a Body weight loss [4] of 1%.

With `CC(Oc1ccc(Oc2cnc3cc(F)ccc3n2)cc1)C(=O)O` (centres undefined) the Body weight loss [5] was 1%, the T/C [6] was 34% and the Log kill [7] was 0.9. The Activity rating [8] was 1.2.

Work on `COC(=O)C(C)Oc1ccc(Oc2cnc3ccc(Cl)cc3n2)cc1` (centres undefined) yielded a T/C [9] of 0%, a Body weight loss [10] of 0% and an Activity rating [11] of over 2.8. The Cures [12] was 3 and the Log kill [13] was 3.5.

Work on `COc1ccc2ncc(Oc3ccc(OC(C)C(=O)O)cc3)nc2c1` (centres undefined) yielded a Log kill [14] of 2.7, a Body weight loss [15] of -4.6% and a T/C [16] of 8%. It also gave a Body weight loss [17] of -13.6%, a T/C [18] of 4.6% and a Log kill [19] of 0.12. For the same compound, the T/C [20] was 6.4%, the Log kill [21] was 3 and the Body weight loss [22] was 0%. For the same compound, the T/C [23] was 0%, the Body weight loss [24] was 0% and the T/C [25] was 90%. For the same compound, the Body weight loss [26] was 0%, the Log kill [27] was 2.1 and the T/C [28] was 23%. It also gave a Log kill [29] of 1.73, a Log kill [30] of 1.7 and a Body weight loss [31] of -1.2%.

Work on `CC(Nc1ccc(Oc2cnc3ccc(Cl)cc3n2)cc1)C(=O)O` (centres undefined) yielded a T/C [32] of 100% and an Activity rating [33] of over 2.8.

Compound `CC(Oc1ccc(Oc2cnc3ccc(N=[N+]=[N-])cc3n2)cc1)C(=O)O` (centres undefined) has a T/C [34] of 17%, a Log kill [35] of 2 and a Log kill [36] of 1. The Body weight loss [37] was 4.3%, the T/C [38] was 30% and the Body weight loss [39] was 2.9%.
